Reference: US10822325B2, “Human GLUT5 specific inhibitors and methods of treatment” (UNM RAINFOREST INNOVATIONS, priority 2015, dated 2020)
Entries after “also recorded” stand apart in the source; their conditions may differ.

Target: T1, human GLUT5 (Homo sapiens, UniProt P22732)
T1 construct: Full length DNA was subcloned into pFastBac1 (Life Technologies) vector with a N-terminal hexahistidine tag; hexahistidine (N); made in house; host or cells: Sf21 insect cells (baculovirus, pFastBac1)
T1 sequence (P22732 1-501): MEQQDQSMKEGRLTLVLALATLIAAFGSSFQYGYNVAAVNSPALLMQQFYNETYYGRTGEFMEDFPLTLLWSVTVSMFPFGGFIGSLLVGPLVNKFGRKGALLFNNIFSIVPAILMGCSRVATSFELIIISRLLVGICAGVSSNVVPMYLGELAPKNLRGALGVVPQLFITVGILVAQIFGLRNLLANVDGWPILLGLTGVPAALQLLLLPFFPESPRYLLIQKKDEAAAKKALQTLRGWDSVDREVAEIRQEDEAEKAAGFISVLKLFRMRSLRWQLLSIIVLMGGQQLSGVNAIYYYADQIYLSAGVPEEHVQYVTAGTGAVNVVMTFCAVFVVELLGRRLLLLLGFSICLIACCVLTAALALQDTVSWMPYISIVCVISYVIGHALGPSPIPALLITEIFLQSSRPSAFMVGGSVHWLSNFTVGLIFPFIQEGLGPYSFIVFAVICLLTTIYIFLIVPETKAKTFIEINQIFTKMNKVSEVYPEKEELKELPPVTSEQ
Assay: Fructose entrance counter-flow transport in GLUT5 proteoliposomes
Type: biochemical
Settings: for effect on GLUT5 fructose transport: 2 mM compound, one minute
Procedure: cDNAs of GLUT1, 3, 4 and 5 were purchased from Open Biosystems (GE Healthcare). cDNAs of GLUT2 was a gift from Prof. Graeme Bell at University of Chicago. Full length DNA was subcloned into pFastBac1 (Life Technologies) vector with a N-terminal hexahistidine tag. Bacmids were generated in DH10Bac E. coli cells (Life Technologies). Baculoviruses were produced using Cellfectin II Reagent and amplified in Sf21 insect cells (Life Technologies). Cells were maintained at 26° C., and P1 (10^6 pfu/mL) was collected from infected cells after 72 hours. SF21 cells were propagated in HyClone SFX-Insect media (GE Healthcare), supplemented with 5% fetal bovine serum (Biowest), 4.8 mM glutamine, antibiotics (100 units/mL Penicillin G and 100 μg/mL streptomycin sulfate) and amphotericin B (2.5 μg/mL). For recombinant protein expression, SF21 cells in suspension culture at 2×10^6 cells/ml were infected with P3 viral stock (10^8 pfu/mL), at an MOI of 1.0 pfu/cell. Four days after viral infection, cells from 1 L culture were collected by centrifugation at 2,000 g and 25 °C. The cell pellet was resuspended in 120 mL of 50 mM sodium phosphate (NaPi) (pH 7.5), 5% (v/v) glycerol, 200 mM sodium chloride (buffer A), with protease inhibitors (1 mM AEBSF, 10 μM E-64, 10 μM pepstatin A, 1 μM Aprotinin, 20 μM Bestatin, 20 μM Leupeptin), at 4° C., and disrupted by sonication (Branson Ultrasonic). n-Dodecyl-β-D-maltopyranoside (DDM, EMD chemicals) was added to a final concentration of 1% (w/v) in the broken cell solution, and the mixture was incubated at 4° C. with stirring, for 4 hours. The solubilized protein solution was clarified by ultracentrifugation at 200,000 g and 4° C. for 1 hour, and the supernatant was loaded onto the Ni-NTA resin (Novagen) and washed with buffer containing 50 mM NaPi (pH 7.5), 500 mM NaCl, 5-20 mM imidazole, 5% (v/v) glycerol and 0.05% (w/v) DDM. GLUT1 (or GLUT2-5, wild-type or mutants) was eluted with buffer A, containing 300 mM imidazole and 0.05% DDM (w/v). To generate DNA for mutant proteins, site-directed mutagenesis was performed on the pFastBac1 plasmid constructs of wild-type proteins and verified by DNA sequencing^37. Mutant proteins were expressed and purified in the same manner as wild-type proteins with no modifications.
Proteoliposomes were generated according to the protocol of^16,38 with minor modifications. Liposomes were made from a 95%/5% mix of soy phosphatidylcholine and cholesterol (Avanti Polar Lipids). Prepared liposomes were destabilized with 4 mM Triton X-100 and mixed with purified protein in a 100:1 (w/w) ratio in 100 mM KPi (pH 7.5), 20% (v/v) glycerol, 200 mM glucose for GLUT1-4 and GLUT1F379H or fructose for GLUT5 (wild-type and H387F mutant) and GLUT2. Detergent was removed by several additions of SM2 BioBeads (BioRad) and incubated overnight at 4° C. […]
For the entrance counterflow transport in proteoliposomes, the assay was started by the addition of 5 μL proteoliposomes solution (OD600 nm ˜30) to 200 μL, assay solution, containing 10 μM ^14C-radiolabeled glucose (for GLUT1 wild-type or F379H mutant and GLUT2-4) or fructose (for GLUT5 wild-type or H387F mutant and GLUT2) (Moravek Biochemicals) in 100 mM KPi buffer at pH 7.5. After one minute (or different specified time points when the time-dependent counter-flow transport activity was measured), the transport was stopped with ice-chilled quench buffer [0.1 M KPi (pH 5.5) and 0.1 M lithium chloride]. […]

C=C1[C@@H](C)[C@H]2[C@H](Cc3ccccc3)NC(=O)[C@]23OC(=O)/C=C/[C@H](O)CCC[C@@H](C)C/C=C/[C@H]3[C@@H]1O [cytochalasin B, reference compound]
effect on GLUT5 fructose transport (proteoliposomes): did not alter

CS(=O)(=O)c1ccc(Nc2ccc3c(c2)OCO3)c([N+](=O)[O-])c1 [MSNBA, N-[4-(methylsulfonyl)-2-nitrophenyl]-1,3-benzodioxol-5-amine]
inhibitory activity against GLUT5 in screen of 175 purchased compounds (1 mM compound, fructose transport in proteoliposomes): inhibitor of GLUT5; also recorded: inhibitory activity | effect on GLUT5 fructose transport (proteoliposomes): completely abolished | IC50 (proteoliposomes, 10 μM C14-fructose, measured one minute after transport initiation, read-out: IC50 of inhibition of GLUT5 fructose transport): 100 ± 30 µM

O=C(CCc1ccc(O)cc1)c1c(O)cc(O)cc1O [phloretin, reference compound]
effect on GLUT5 fructose transport (proteoliposomes): did not alter
